Measurements published in ChEMBL document CHEMBL1151694, “Efficient synthesis and biological evaluation of two modafinil analogues” (2008).
Calls of active or inactive are those of the source. No cut-off for these calls is given here.

Legend:
Cortex [1] = assay: Effect on electrically-evoked [3H]5HT […] in Sprague-Dawley rat brain cortical slices administered 15 mins before electrical challenge after 85 mins of superfusion relative to control; assay type: functional, tissue-based
Cortex [2] = assay: Effect on spontaneous [3H]5HT […] in Sprague-Dawley rat brain cortical slices at 1 to 30 uM measured after 45 mins of superfusion; assay type: functional, tissue-based
Cortex [3] = assay: Effect on electrically-evoked [3H]5HT […] in Sprague-Dawley rat brain cortical slices administered 15 mins before electrical challenge at 30 uM after 85 mins of superfusion relative to control; assay type: functional
Cortex [4] = assay: Effect on spontaneous [3H]5HT […] in Sprague-Dawley rat brain cortical slices at 0.1 to 30 uM measured after 45 mins of superfusion; assay type: functional, tissue-based
Cortex [5] = assay: Effect on electrically-evoked [3H]5HT […] in Sprague-Dawley rat brain cortical slices administered 15 mins before electrical challenge at 100 uM after 85 mins of superfusion relative to control; assay type: functional, tissue-based
Cortex [6] = assay: Effect on spontaneous [3H]5HT […] in Sprague-Dawley rat brain cortical slices at 0.1 to 100 uM measured after 45 mins of superfusion; assay type: functional, tissue-based

SMILES | Activity (Cortex [1]) | Activity (Cortex [2]) | Activity (Cortex [3]) [%] | Activity (Cortex [4]) | Activity (Cortex [5]) | Activity (Cortex [6])
NC(=O)C[S+]([O-])C(c1ccccc1)c1ccccc1 (configuration not stated) [MODAFINIL] | Dose-dependent effect | inactive | 217 |  |  | 
CC(C)NC(=O)CC(=O)C(c1ccccc1)c1ccccc1 | Dose-dependent effect |  |  | inactive |  | 
NC(=O)CC(=O)C(c1ccccc1)c1ccccc1 |  |  |  |  | Active | inactive
